# Activity calls are given as the source filed them. The rule behind the calls is not given here.
# Key:
# [1] = biological target: T1, Cereblon/Ikaros (Homo sapiens) (UniProt Q96SW2+Q13422); assay: Protac activity at CRBN/IKZF1 (unknown origin) transfected in HEK293T cells at 100 nM incubated for 24 hrs by flow cytometry analysis relative to control; assay type: cell-based
# [2] = biological target: Protein cereblon/Eukaryotic peptide chain release factor GTP-binding subunit ERF3A (Homo sapiens) (UniProt Q96SW2+P15170); assay: Protac activity at CRBN/GSPT1 (unknown origin) transfected in HEK293T cells at 100 nM incubated for 24 hrs by flow cytometry analysis relative to control; assay type: cell-based
# Chain of Protein cereblon/Eukaryotic peptide chain release factor GTP-binding subunit ERF3A (Homo sapiens) (P15170 whole entry, looked up): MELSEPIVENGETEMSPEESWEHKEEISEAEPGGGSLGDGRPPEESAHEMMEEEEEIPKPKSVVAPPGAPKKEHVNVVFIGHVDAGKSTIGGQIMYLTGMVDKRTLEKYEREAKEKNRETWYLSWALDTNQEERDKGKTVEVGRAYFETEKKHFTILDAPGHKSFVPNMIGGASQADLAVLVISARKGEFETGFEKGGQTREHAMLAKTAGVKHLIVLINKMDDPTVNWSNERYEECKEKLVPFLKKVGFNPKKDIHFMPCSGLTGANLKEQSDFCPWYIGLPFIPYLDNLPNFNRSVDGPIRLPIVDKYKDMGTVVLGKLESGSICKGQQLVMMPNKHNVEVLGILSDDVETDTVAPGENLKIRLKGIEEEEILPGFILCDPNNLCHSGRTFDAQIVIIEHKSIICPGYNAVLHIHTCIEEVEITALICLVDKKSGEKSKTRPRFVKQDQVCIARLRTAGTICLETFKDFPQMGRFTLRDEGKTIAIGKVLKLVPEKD
# Chain of Protein cereblon/Eukaryotic peptide chain release factor GTP-binding subunit ERF3A (Homo sapiens) (Q96SW2 whole entry, looked up): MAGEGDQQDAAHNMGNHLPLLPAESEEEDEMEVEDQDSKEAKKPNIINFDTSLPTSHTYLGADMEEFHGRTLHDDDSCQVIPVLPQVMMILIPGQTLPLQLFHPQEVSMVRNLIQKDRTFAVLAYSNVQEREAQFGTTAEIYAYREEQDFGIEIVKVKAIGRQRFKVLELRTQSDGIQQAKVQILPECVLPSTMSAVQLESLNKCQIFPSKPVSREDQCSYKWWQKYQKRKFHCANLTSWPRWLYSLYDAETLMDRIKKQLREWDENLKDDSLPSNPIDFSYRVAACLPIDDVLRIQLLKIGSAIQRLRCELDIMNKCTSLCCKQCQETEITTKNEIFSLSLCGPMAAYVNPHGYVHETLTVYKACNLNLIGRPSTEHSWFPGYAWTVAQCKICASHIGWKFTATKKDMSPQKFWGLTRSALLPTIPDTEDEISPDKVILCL
# [3] = biological target: T2, Protein cereblon/Zinc finger protein Helios (Homo sapiens) (UniProt Q96SW2+Q9UKS7); assay: Protac activity at CRBN/IKZF2 (unknown origin) transfected in HEK293T cells at 100 nM incubated for 24 hrs by flow cytometry analysis relative to control; assay type: cell-based
# T2 sequence (Q96SW2 whole entry, looked up): as above
# T2 sequence (Q9UKS7 whole entry, looked up): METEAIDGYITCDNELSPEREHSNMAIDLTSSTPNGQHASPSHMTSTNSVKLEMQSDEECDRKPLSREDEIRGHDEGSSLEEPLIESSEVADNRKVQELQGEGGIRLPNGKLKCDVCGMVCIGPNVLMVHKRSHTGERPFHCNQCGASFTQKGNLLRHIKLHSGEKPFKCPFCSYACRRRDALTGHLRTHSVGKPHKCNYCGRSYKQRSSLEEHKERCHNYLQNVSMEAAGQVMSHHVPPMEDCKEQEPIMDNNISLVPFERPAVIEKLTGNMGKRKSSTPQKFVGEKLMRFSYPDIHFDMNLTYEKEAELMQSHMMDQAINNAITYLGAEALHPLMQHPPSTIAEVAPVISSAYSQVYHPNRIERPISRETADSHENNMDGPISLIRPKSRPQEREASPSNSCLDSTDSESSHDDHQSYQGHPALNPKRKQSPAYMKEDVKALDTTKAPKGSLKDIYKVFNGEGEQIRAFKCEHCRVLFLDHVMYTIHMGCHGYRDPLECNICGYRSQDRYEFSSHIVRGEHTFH
# [4] = biological target: Cereblon/Casein kinase I alpha (Homo sapiens) (UniProt P48729+Q96SW2); assay: Protac activity at CRBN/CK1alpha (unknown origin) transfected in HEK293T cells at 100 nM incubated for 24 hrs by flow cytometry analysis relative to control; assay type: cell-based
# Chain of Cereblon/Casein kinase I alpha (Homo sapiens) (P48729 2-337 limits assumed): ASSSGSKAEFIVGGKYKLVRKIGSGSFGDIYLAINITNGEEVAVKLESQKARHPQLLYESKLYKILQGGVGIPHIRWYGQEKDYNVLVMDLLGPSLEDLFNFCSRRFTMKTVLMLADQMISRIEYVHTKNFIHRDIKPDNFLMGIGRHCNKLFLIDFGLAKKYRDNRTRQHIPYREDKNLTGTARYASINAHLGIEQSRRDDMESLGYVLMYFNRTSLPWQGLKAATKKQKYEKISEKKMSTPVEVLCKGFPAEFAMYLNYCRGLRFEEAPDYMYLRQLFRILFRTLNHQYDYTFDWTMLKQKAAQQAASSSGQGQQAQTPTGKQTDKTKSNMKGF
# Chain of Cereblon/Casein kinase I alpha (Homo sapiens) (Q96SW2 whole entry partner): as the sequence (Q96SW2 whole entry, looked up) above
# [5] = biological target: T2, Protein cereblon/Zinc finger protein Helios (Homo sapiens); assay: Protac activity at CRBN/IKZF2 in human MOLM-13 cells at 25 uM incubated for 24 hrs by Western blotting analysis relative to control; assay type: cell-based
# [6] = biological target: T1, Cereblon/Ikaros (Homo sapiens); assay: Protac activity at CRBN/IKZF1 in human MOLM-13 cells at 25 uM incubated for 24 hrs by Western blotting analysis relative to control; assay type: cell-based
# [7] = biological target: T1, Cereblon/Ikaros (Homo sapiens); assay: Protac activity at CRBN/IKZF1 in human MOLM-13 cells assessed as relative ratio at 25 uM incubated for 24 hrs by Western blotting analysis relative to DMSO; assay type: cell-based
# [8] = biological target: T2, Protein cereblon/Zinc finger protein Helios (Homo sapiens); assay: Protac activity at CRBN/IKZF2 in human MOLM-13 cells assessed as relative ratio at 25 uM incubated for 24 hrs by Western blotting analysis relative to DMSO; assay type: cell-based
# [9] = Solubility of compound in DMSO; assay type: physicochemical; details: DMSO; read-out: solubility
# [10] = Metabolic stability in mouse liver microsomes assessed as intrinsic clearance preincubated with NADPH and UDPGA for 5 mins followed by compound addition and measured upto 60 mins by LC-MS/MS analysis; assay type: ADME, Microsome; details: read-out: CLH
# [11] = Metabolic stability in mouse liver microsomes assessed as half life preincubated with NADPH and UDPGA for 5 mins followed by compound addition and measured upto 60 mins by LC-MS/MS analysis; assay type: ADME, Microsome
smiles,measurement,setting,value
O=C1CCC(N2Cc3cc(NC(=O)Cc4cccc5ccccc45)ccc3C2=O)C(=O)N1 (configuration not stated),Activity,[1],97%
same,Activity,[2],25%
same,Activity,[3],93%
same,Activity,[4],64%
O=C1CCC(N2Cc3cc(NCc4cccc5c4oc4ccccc45)ccc3C2=O)C(=O)N1 (configuration not stated),Activity,[5],Active
same,Activity,[6],Active
same,Ratio,[7],0.32
same,Ratio,[8],0.84
O=C1CCC(N2C(=O)c3ccc(NCc4ccc5ccccc5c4)cc3C2=O)C(=O)N1 (configuration not stated),Activity,[5],Active
same,Activity,[6],inactive
same,Ratio,[7],0.09
same,Ratio,[8],1.45
COc1cc(Br)cc2c1OCC(C(=O)Nc1ccc3c(c1)CN(C1CCC(=O)NC1=O)C3=O)=C2 (configuration not stated),Activity,[1],13%
same,solubility,[9],50 mM
same,Activity,[2],2%
same,Activity,[3],74%
same,Activity,[4],65%
O=C1CCC(N2Cc3cc(NC(=O)c4ccc5c(c4)CCCC5)ccc3C2=O)C(=O)N1 (configuration not stated),Activity,[1],16%
same,Activity,[2],1%
same,Activity,[3],74%
same,Activity,[4],51%
COc1cc2c(OC)cccc2cc1CNc1ccc2c(c1)CN(C1CCC(=O)NC1=O)C2=O (configuration not stated),Activity,[5],Active
O=C1CCC(N2Cc3cc(NC(=O)c4ccc5ncsc5c4)ccc3C2=O)C(=O)N1 (configuration not stated),Activity,[1],3%
same,Activity,[2],0%
same,Activity,[3],42%
same,Activity,[4],33%
O=C(/C=C/c1ccccc1)Nc1ccc2c(c1)CN(C1CCC(=O)NC1=O)C2=O (configuration not stated),Activity,[1],13%
same,Activity,[2],8%
same,Activity,[3],71%
same,Activity,[4],60%
COc1cc(CNc2ccc3c(c2)CN(C2CCC(=O)NC2=O)C3=O)cc2ccccc12 (configuration not stated),Activity,[5],inactive
same,Activity,[6],Active
O=C1CCC(N2Cc3cc(NC(=O)C4=Cc5ccc(OC(F)(F)F)cc5OC4)ccc3C2=O)C(=O)N1 (configuration not stated),Activity,[1],11%
same,solubility,[9],50 mM
same,Activity,[2],6%
same,Activity,[3],85%
same,Activity,[4],66%
O=C1CCC(N2Cc3cc(NC(=O)C4=Cc5ccc(Br)cc5OC4)ccc3C2=O)C(=O)N1 (configuration not stated),Activity,[1],13%
same,solubility,[9],50 mM
same,Activity,[2],22%
same,Activity,[3],80%
same,Activity,[4],62%
COc1cccc2ccc(CNc3ccc4c(c3)CN(C3CCC(=O)NC3=O)C4=O)cc12 (configuration not stated),Activity,[5],inactive
same,Activity,[6],Active
O=C1CCC(N2Cc3cc(NC(=O)c4cccc(C(=O)c5ccccc5)c4)ccc3C2=O)C(=O)N1 (configuration not stated),Activity,[1],60%
same,Activity,[2],9%
same,Activity,[3],83%
same,Activity,[4],64%
O=C1CCC(N2Cc3cc(NCc4ccc5c6c4CC=C4C=CC=C(C=C5)C46)ccc3C2=O)C(=O)N1 (configuration not stated),Ratio,[7],0.39
same,Ratio,[8],0.95
O=C1CCC(N2Cc3cc(NCc4cccc5cnccc45)ccc3C2=O)C(=O)N1 (configuration not stated),Activity,[6],Active
O=C1CCC(N2Cc3cc(NC(=O)c4ccc(Oc5ccccc5)cc4)ccc3C2=O)C(=O)N1 (configuration not stated),Activity,[1],5%
same,Activity,[2],10%
same,Activity,[3],78%
same,Activity,[4],61%
O=C1CCC(N2Cc3cc(NC(=O)c4ccc5c(c4)OCCO5)ccc3C2=O)C(=O)N1 (configuration not stated),Activity,[1],9%
same,Activity,[2],5%
same,Activity,[3],38%
same,Activity,[4],36%
O=C1CCC(N2Cc3cc(NC(=O)c4cccc(Oc5ccccc5)c4)ccc3C2=O)C(=O)N1 (configuration not stated),Activity,[1],62%
same,Activity,[2],9%
same,Activity,[3],74%
same,Activity,[4],58%
COc1cc2ccc(C(=O)Nc3ccc4c(c3)CN(C3CCC(=O)NC3=O)C4=O)cc2cn1 (configuration not stated),Activity,[3],88%
same,Activity,[4],72%
O=C1CCC(N2Cc3cc(NCc4ccccc4)ccc3C2=O)C(=O)N1 (configuration not stated),Ratio,[7],0.59
same,Ratio,[8],1.04
O=C1CCC(N2Cc3cc(NCc4cccc(Oc5ccccc5)c4)ccc3C2=O)C(=O)N1 (configuration not stated),Ratio,[7],0.14
same,Ratio,[8],0.79
COc1ccc2ccc(CNc3ccc4c(c3)CN(C3CCC(=O)NC3=O)C4=O)cc2c1 (configuration not stated),Activity,[5],inactive
same,Activity,[6],Active
O=C1CCC(N2Cc3cc(NCc4ccc5oc6ccccc6c5c4)ccc3C2=O)C(=O)N1 (configuration not stated),Activity,[5],Active
same,Ratio,[7],0.08
same,Ratio,[8],0.19
O=C1CCC(N2Cc3cc(NCc4ccc5c(c4)oc4ccccc45)ccc3C2=O)C(=O)N1 (configuration not stated),Activity,[5],Active
same,Activity,[6],Active
same,Ratio,[7],0.24
same,Ratio,[8],0.94
O=C1CCC(N2Cc3cc(NCc4ccc5ccncc5c4)ccc3C2=O)C(=O)N1 (configuration not stated),Activity,[6],Active
O=C1CCC(N2Cc3cc(NCc4cccc5ccccc45)ccc3C2=O)C(=O)N1 (configuration not stated),Ratio,[7],0.66
same,Ratio,[8],0.83
CN(C)c1ccc2cc(CNc3ccc4c(c3)CN(C3CCC(=O)NC3=O)C4=O)ccc2c1 (configuration not stated),Activity,[5],Active
same,Activity,[6],Active
same,Ratio,[7],0.65
same,Ratio,[8],0.74
CC(=O)Nc1ccc2c(c1)CN(C1CCC(=O)NC1=O)C2=O (configuration not stated),Activity,[1],4%
same,Activity,[2],10%
same,Activity,[3],17%
same,Activity,[4],12%
O=C1CCC(N2Cc3cc(NCc4ccc5cc(Br)ccc5c4)ccc3C2=O)C(=O)N1 (configuration not stated),Ratio,[7],0.73
same,Ratio,[8],1.41
COc1ccc2cc(CNc3ccc4c(c3)CN(C3CCC(=O)NC3=O)C4=O)ccc2c1 (configuration not stated),Activity,[5],Active
same,Activity,[6],Active
same,Ratio,[7],0.64
same,Ratio,[8],0.43
O=C1CCC(N2Cc3cc(NC(=O)c4ccc5occc5c4)ccc3C2=O)C(=O)N1 (configuration not stated),Activity,[1],6%
same,Activity,[2],2%
same,Activity,[3],81%
same,Activity,[4],50%
COc1ccc(CNc2ccc3c(c2)CN(C2CCC(=O)NC2=O)C3=O)cc1 (configuration not stated),Ratio,[7],0.48
same,Ratio,[8],0.65
O=C1CCC(N2Cc3cc(NCc4ccc5cc(F)ccc5c4)ccc3C2=O)C(=O)N1 (configuration not stated),Activity,[5],Active
same,Activity,[6],Active
COc1cnc2cc(C(=O)Nc3ccc4c(c3)CN(C3CCC(=O)NC3=O)C4=O)ccc2c1 (configuration not stated),microsomal CLint,[10],< 5.4 µL/min/mg
same,half-life,[11],> 4.25 h
same,Activity,[3],62%
same,Activity,[4],64%
O=C1CCC(N2Cc3cc(NC(=O)C4=Cc5ccccc5OC4)ccc3C2=O)C(=O)N1 (configuration not stated),Activity,[1],15%
same,Activity,[2],11%
same,Activity,[3],84%
same,Activity,[4],66%
O=C1CCC(N2Cc3cc(NCc4ccc5cc(O)ccc5c4)ccc3C2=O)C(=O)N1 (configuration not stated),Ratio,[7],0.54
same,Ratio,[8],0.84
O=C1CCC(N2Cc3cc(NC(=O)C4=COc5ccccc5O4)ccc3C2=O)C(=O)N1 (configuration not stated),Activity,[1],13%
same,Activity,[2],0%
same,Activity,[3],81%
same,Activity,[4],46%
O=C1CCC(N2Cc3cc(NCc4ccc5ccccc5n4)ccc3C2=O)C(=O)N1 (configuration not stated),Activity,[6],Active
O=C1CCC(N2Cc3cc(NCc4cc5ccccc5cn4)ccc3C2=O)C(=O)N1 (configuration not stated),Activity,[6],Active
O=C1CCC(N2Cc3cc(NCc4ccc5ccccc5c4)ccc3C2=O)C(=O)N1 (configuration not stated),Activity,[5],Active
same,Ratio,[7],0.15
same,Ratio,[8],0.36
O=C1CCC(N2Cc3cc(NCc4ccc5ncccc5c4)ccc3C2=O)C(=O)N1 (configuration not stated),Activity,[6],Active
O=C1CCC(N2Cc3cc(NC(=O)c4ccc5c(c4)OCO5)ccc3C2=O)C(=O)N1 (configuration not stated),Activity,[1],7%
same,Activity,[2],5%
same,Activity,[3],49%
same,Activity,[4],36%
O=C1CCC(N2Cc3cc(NCc4cccc(OCc5ccccc5)c4)ccc3C2=O)C(=O)N1 (configuration not stated),Ratio,[7],0.04
same,Ratio,[8],0.66
O=C1CCC(N2Cc3cc(NC(=O)c4ccc5cc(O)ccc5c4)ccc3C2=O)C(=O)N1 (configuration not stated),Activity,[3],60%
same,Activity,[4],55%
O=C1CCC(N2Cc3cc(NCc4cc5ccccc5o4)ccc3C2=O)C(=O)N1 (configuration not stated),Ratio,[7],0.13
same,Ratio,[8],0.76
O=C1CCC(N2Cc3cc(NCCc4ccc5ccccc5c4)ccc3C2=O)C(=O)N1 (configuration not stated),Activity,[5],inactive
same,Activity,[6],Active
same,Ratio,[7],0.26
same,Ratio,[8],1.51

# From ChEMBL document CHEMBL5375992, “Design and Development of IKZF2 and CK1α Dual Degraders” (J Med Chem, 2023)
